Laboratory results: patent publication US12336981B2, “Compounds and compositions for the inhibition of NAMPT” (Valo Health, Inc., priority 2010, dated 2025)
Read-outs that look alike come from different tables or passages of the source.

Columns and labels:
NAMPT = biological target: T1, NAMPT (Homo sapiens, UniProt P43490); experiment: Biochemical inhibition assay: NAMPT enzymatic reaction, NMN quantified by mass spectrometry; details: read-out: Biochem IC50
T1 construct: His tag; host or cells: E. coli
In short: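 Inhibition of E. coli-expressed His-tagged human NAMPT, measured as NMN formation by mass spectrometry after a 30 min room-temperature reaction containing 1 μM NAM, 100 μM PRPP and 2.5 mM ATP.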

A2780 cells = experiment: In-vitro cell proliferation assay (SRB), A2780 cells; assay type: cell-based; details: Homo sapiens, A2780, 72 h, A2780 cells, 72 hours, read-out: A2780 IC50
In short: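 Viable cells measured by SRB staining after 6% TCA fixation, absorbance 570 nm. Media-only background subtracted; % inhibition derived at two compound concentrations.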

T1 sequence (P43490 whole entry): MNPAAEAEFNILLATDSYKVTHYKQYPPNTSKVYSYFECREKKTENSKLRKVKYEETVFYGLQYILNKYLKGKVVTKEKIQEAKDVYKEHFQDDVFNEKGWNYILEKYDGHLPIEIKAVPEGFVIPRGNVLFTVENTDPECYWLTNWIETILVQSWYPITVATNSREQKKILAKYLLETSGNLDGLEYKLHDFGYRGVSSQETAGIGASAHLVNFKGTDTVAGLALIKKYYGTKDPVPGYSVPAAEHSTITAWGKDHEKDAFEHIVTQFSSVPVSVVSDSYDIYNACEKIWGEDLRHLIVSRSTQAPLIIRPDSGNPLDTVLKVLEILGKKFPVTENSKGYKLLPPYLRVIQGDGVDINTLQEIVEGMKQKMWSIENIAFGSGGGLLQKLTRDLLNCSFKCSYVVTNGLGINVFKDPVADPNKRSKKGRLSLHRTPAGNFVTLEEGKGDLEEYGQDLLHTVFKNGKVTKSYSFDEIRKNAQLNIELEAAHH

Row | Compound | IC50 (NAMPT; NAMPT enzymatic reaction) | IC50 (A2780 cells; SRB) | IC50 (NAMPT; NAMPT enzymatic assay) | IC50 (A2780 cells; SRB assay)
1 | O=C(NCc1ccc(S(=O)(=O)c2cccc(F)c2Cl)cc1)c1cc2ccncc2o1 | 17 nM | 61.1 nM | – | –
2 | O=C(NCc1ccc(S(=O)(=O)c2cnc(N3CCCC3)s2)cc1)c1cc2cnccc2[nH]1 [N-({4-[2-(pyrrolidin-1-yl)-1,3-thiazole-5-sulfonyl]phenyl}methyl)-1H-pyrrolo[3,2-c]pyridine-2-carboxamide] | – | 0.5 nM | 6 nM | –
3 | CCc1ccc(S(=O)(=O)c2ccc(CNC(=O)c3cc4ccncc4s3)cc2)cc1 [N-({4-[(4-ethylbenzene)sulfonyl]phenyl}methyl)thieno[2,3-c]pyridine-2-carboxamide] | 6 nM | – | – | 7.8 nM
4 | O=C(NCc1ccc(S(=O)(=O)c2ccc(F)c(OCC(F)(F)F)c2)cc1)c1cnc2nccn2c1 | – | 6.5 nM | 2.4 nM | –
5 | CC(=O)c1cccc(S(=O)(=O)c2ccc(CNC(=O)c3cc4cnccc4[nH]3)cc2)c1 [N-({4-[(3-acetylbenzene)sulfonyl]phenyl}methyl)-1H-pyrrolo[3,2-c]pyridine-2-carboxamide] | 12 nM | – | – | 6 nM
6 | COc1ccc(Cl)c(S(=O)(=O)c2ccc(CNC(=O)c3cnc4nccn4c3)cc2)c1 | 6.1 nM | 51.5 nM | – | –
7 | O=C(NCc1ccc(S(=O)(=O)c2cccc(OCCN3CCOCC3)c2)cc1)c1cc2ccncc2s1 | – | 1.5 nM | 3 nM | –
8 | O=C(NCc1ccc(S(=O)(=O)c2cc(Cl)cc(Cl)c2)cc1)c1ccc2nccn2c1 [N-({4-[(3,5-dichlorobenzene)sulfonyl]phenyl}methyl)imidazo[1,2-a]pyridine-6-carboxamide] | 5.49 nM | 1.28 nM | – | –
9 | COc1cc(Cl)ccc1S(=O)(=O)c1ccc(CNC(=O)c2cc3cnccc3[nH]2)cc1 [N-({4-[(4-chloro-2-methoxybenzene)sulfonyl]phenyl}methyl)-1H-pyrrolo[3,2-c]pyridine-2-carboxamide] | 22 nM | – | – | 3 nM
10 | COc1cc(C)cc(S(=O)(=O)c2ccc(CNC(=O)c3cc4ccncc4s3)cc2)c1OC [N-({4-[(2,3-dimethoxy-5-methylbenzene)sulfonyl]phenyl}methyl)thieno[2,3-c]pyridine-2-carboxamide] | – | 2.7 nM | 6 nM | –
11 | COc1cc(C)c(S(=O)(=O)c2ccc(CNC(=O)c3cnc4[nH]ncc4c3)cc2)cc1C [N-({4-[(4-methoxy-2,5-dimethylbenzene)sulfonyl]phenyl}methyl)-1H-pyrazolo[3,4-b]pyridine-5-carboxamide] | 36.8 nM | 23.6 nM | – | –
12 | COc1ccc(C#N)cc1S(=O)(=O)c1ccc(CNC(=O)c2ccc3nccn3c2)cc1 | 14.6 nM | 11.9 nM | – | –
13 | O=C(NCc1ccc(S(=O)(=O)c2ccc(-n3cccn3)cc2F)cc1)c1cnc2nccn2c1 | – | 19 nM | 2.2 nM | –
14 | O=C(NCc1ccc(S(=O)(=O)c2ccccc2Oc2ccccc2)cc1)c1cc2cnccc2[nH]1 [N-({4-[(2-phenoxybenzene)sulfonyl]phenyl}methyl)-1H-pyrrolo[3,2-c]pyridine-2-carboxamide] | 11 nM | – | – | 7 nM
15 | O=C(NCc1ccc(S(=O)(=O)Nc2ccc3c(c2)OCCO3)cc1)c1cc2cnccc2[nH]1 [N-({4-[(2,3-dihydro-1,4-benzodioxin-6-yl)sulfamoyl]phenyl}methyl)-1H-pyrrolo[3,2-c]pyridine-2-carboxamide] | > 10000 nM | – | – | > 10000 nM
16 | Cc1ccccc1S(=O)(=O)c1ccc(CNC(=O)c2cnc3[nH]ncc3c2)cc1 [N-({4-[(2-methylbenzene)sulfonyl]phenyl}methyl)-1H-pyrazolo[3,4-b]pyridine-5-carboxamide] | 92.6 nM | 100 to 1000 nM | – | –
17 | O=C(NCc1ccc(S(=O)(=O)c2cc(F)cc(OCC(F)(F)F)c2)cc1)c1cc2ccncc2o1 [N-[(4-{[3-fluoro-5-(2,2,2-trifluoroethoxy)benzene]sulfonyl}phenyl)methyl]furo[2,3-c]pyridine-2-carboxamide] | – | 6.1 nM | 7.4 nM | –
18 | O=C(NCc1ccc(S(=O)(=O)c2cc(F)cc(C(F)(F)F)c2)cc1)c1cc2ccncc2o1 | – | 5 nM | 7.4 nM | –
